# From patent publication US12605344B2, “Nanoparticles encapsulating soluble biologics, therapeutics, and imaging agents” (The Trustees of Princeton University, priority 2014, dated 2026)
# How the values were obtained:
# [1] = Maximum loading giving stable nanoparticles (FNP); type: physicochemical; settings: PBA-b-PAA nanoparticles by FNP
# Text: Increasing the percentage of core material necessitated the formation of larger particles. […] This may be because the addition of core material allows the PAA to more tightly pack due to charge shielding effects. Very high loadings of both lysozyme and vancomycin were obtained. Loading of lysozyme as high as 75 wt % was obtained without the formation of large precipitates, however, the particles were too large to analyze using dynamic light scattering (DLS).
# [2] = Solubility in organic solvents; type: physicochemical; settings: in chloroform and acetone
Compound,loading obtained with stable particles / without large precipitates [1],solubility [2]
"CN[C@H](CC(C)C)C(=O)N[C@H]1C(=O)N[C@@H](CC(N)=O)C(=O)N[C@H]2C(=O)N[C@H]3C(=O)N[C@H](C(=O)N[C@H](C(=O)O)c4cc(O)cc(O)c4-c4cc3ccc4O)[C@H](O)c3ccc(c(Cl)c3)Oc3cc2cc(c3O[C@@H]2O[C@H](CO)[C@@H](O)[C@H](O)[C@H]2O[C@H]2C[C@](C)(N)[C@H](O)[C@H](C)O2)Oc2ccc(cc2Cl)[C@H]1O [Vancomycin, vancomycin]",up to 90 wt %,poorly soluble
lysozyme,≤ 75 wt %,–
